Substitutions are numbered along the chain they refer to.
How the values were obtained:
[1] = system: HepG2, LS180, and LS174T cells; assay: Cell viability assay; type: cell-based, human; settings: 1.7 nM to 56 μM
[2] = biological target: T1, hPXR (Homo sapiens, UniProt O75469); settings: HEK293T cells, 24 h; for PXR activation in the screen: 28 μM
T1 sequence (O75469 1-434): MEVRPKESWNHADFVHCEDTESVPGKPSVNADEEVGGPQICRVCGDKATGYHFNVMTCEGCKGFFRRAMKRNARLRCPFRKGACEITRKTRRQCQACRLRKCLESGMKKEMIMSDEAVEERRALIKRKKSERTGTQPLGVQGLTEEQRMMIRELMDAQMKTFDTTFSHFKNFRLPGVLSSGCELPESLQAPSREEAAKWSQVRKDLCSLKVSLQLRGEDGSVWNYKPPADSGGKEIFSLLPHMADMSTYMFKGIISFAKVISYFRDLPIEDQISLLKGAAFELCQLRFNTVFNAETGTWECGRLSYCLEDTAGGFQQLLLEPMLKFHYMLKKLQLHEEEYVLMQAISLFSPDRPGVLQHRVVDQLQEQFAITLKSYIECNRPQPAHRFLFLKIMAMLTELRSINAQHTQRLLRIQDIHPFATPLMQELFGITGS

[3] = system: human carbonic anhydrase isoforms VII, XII, and XIII; settings: ref [31]; cited from earlier work
[4] = system: CYP3A4 and MDR1 expression; assay: CYP3A4 and MDR1 expression in LS180 and LS174T intestine cells; type: cell-based, human; settings: Western blot
[5] = biological target: T2, hPXR R410A (Homo sapiens, UniProt O75469, R410A); assay: CYP3A4 promoter luciferase reporter assay in HepG2 cells, hPXR mutant R410A; type: cell-based; settings: HepG2, 24 h, relative luciferase units (a.u.), DMSO 3.28
T2 sequence (O75469 1-434 R410A): T1 sequence (O75469 1-434) with R410A

[6] = biological target: T3, hPXR R410A mutant (CYP3A4 promoter) (Homo sapiens, UniProt O75469, R410A); assay: as above; type: cell-based; settings: human
T3 sequence (O75469 1-434 R410A): T1 sequence (O75469 1-434) with R410A

[7] = biological target: hPXR and SRC-1 interaction (Homo sapiens, UniProt O75469); assay: Mammalian two-hybrid assay in HepG2 cells; type: cell-based; settings: 24 h, 5 μM rifampicin, 5, 10 or 20 μM MET
[8] = system: hPXR mutants; type: cell-based, human; settings: 21 alanine mutants, various MET concentrations, HepG2
[9] = biological target: T1, hPXR; assay: CYP3A4 promoter luciferase reporter assay in HepG2 cells; settings: HepG2, LS180 and LS174T cells, 24 h
[10] = system: CYP3A4 and MDR1 expression; assay: CYP3A4 and MDR1 expression in human primary hepatocytes; type: cell-based; settings: 48-h treatment, two donors
[11] = system: human carbonic anhydrase isoforms I and III; settings: ref [31]; cited from earlier work
[12] = biological target: T4, hPXR ligand-binding domain (Homo sapiens, UniProt O75469); assay: LanthaScreen TR-FRET PXR competitive ligand-binding assay; settings: 1.75 μM, compared with vehicle control
T4 sequence (O75469 146-433 limits assumed): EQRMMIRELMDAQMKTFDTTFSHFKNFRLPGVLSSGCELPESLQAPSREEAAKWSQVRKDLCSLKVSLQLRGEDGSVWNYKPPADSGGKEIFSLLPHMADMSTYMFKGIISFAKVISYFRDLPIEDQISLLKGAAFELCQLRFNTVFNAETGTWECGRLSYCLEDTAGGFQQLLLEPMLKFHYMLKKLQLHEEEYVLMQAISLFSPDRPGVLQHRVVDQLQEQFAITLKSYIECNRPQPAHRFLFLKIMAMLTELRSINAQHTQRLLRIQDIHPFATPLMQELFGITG

[13] = biological target: T5, wild-type hPXR (CYP3A4 promoter) (Homo sapiens, UniProt O75469); assay: CYP3A4 promoter luciferase reporter assay in HepG2 cells, wild-type hPXR; type: cell-based; settings: human
T5 sequence (O75469 1-434): T1 sequence (O75469 1-434)

[14] = biological target: T6, wild-type hPXR (Homo sapiens, UniProt O75469); assay: as above; type: cell-based; settings: HepG2, 24 h, relative luciferase units (a.u.), DMSO 0.40
T6 sequence (O75469 1-434): T1 sequence (O75469 1-434)

Sequence of hPXR and SRC-1 interaction (Q15788 whole entry partner, one chain of several): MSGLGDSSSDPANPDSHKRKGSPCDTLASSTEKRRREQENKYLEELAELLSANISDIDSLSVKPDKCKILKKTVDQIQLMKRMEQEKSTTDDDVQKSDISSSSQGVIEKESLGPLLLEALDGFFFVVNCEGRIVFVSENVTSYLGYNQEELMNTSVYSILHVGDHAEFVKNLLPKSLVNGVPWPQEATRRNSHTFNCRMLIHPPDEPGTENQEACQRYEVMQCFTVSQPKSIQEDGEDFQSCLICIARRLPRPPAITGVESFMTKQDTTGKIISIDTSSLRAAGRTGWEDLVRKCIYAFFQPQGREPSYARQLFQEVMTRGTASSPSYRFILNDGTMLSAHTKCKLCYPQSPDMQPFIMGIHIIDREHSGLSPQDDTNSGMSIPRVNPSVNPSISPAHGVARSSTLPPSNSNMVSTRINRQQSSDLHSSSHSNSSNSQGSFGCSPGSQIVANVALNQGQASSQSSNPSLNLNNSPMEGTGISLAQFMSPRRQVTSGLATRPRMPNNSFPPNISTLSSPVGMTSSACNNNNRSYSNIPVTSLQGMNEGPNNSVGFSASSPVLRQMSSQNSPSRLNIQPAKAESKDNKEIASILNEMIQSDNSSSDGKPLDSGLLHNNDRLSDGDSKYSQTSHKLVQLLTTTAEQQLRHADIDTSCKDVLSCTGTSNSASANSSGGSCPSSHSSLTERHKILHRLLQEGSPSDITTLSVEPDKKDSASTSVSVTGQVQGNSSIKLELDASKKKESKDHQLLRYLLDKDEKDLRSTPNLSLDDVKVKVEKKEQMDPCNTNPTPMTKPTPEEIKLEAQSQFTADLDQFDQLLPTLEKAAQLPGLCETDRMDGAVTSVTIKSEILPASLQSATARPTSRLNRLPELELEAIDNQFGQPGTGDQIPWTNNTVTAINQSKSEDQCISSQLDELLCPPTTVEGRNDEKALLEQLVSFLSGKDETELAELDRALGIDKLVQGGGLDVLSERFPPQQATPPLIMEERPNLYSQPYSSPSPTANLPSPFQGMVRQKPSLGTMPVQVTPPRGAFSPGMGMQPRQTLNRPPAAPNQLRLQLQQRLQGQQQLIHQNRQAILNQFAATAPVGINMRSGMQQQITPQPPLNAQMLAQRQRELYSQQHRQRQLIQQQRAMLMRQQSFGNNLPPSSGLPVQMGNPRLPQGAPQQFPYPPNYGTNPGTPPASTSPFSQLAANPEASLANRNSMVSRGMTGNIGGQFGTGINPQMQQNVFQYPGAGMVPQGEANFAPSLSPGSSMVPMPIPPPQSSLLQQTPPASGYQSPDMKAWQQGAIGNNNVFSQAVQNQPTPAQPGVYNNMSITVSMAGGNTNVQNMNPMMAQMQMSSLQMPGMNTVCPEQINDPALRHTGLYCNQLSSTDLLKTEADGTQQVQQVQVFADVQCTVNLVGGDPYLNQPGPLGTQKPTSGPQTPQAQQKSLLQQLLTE

**Q.** Which results are given for `Cc1ccccc1N1C(=O)c2cc(S(N)(=O)=O)c(Cl)cc2NC1C` (centres unmarked) [Metolazone]?
**A.** cytotoxicity [1]: not significantly cytotoxic even at high concentration; activation of the CYP3A4-luc reporter ([2]; final compound concentration 28 μM, DMSO set as 0% and rifampicin at 5 μM set as 100%): 182%; inhibition of carbonic anhydrase [3]: very potent; CYP3A4 and MDR1 protein expression [4]: induced CYP3A4 and MDR1 protein expression; CYP3A4 promoter activity ([5]; 10 μM MET): 6.43; CYP3A4 promoter activity ([5]; 20 μM MET): 4.92; fold induction at 24 h, 10 μM [6]: 1.96; fold induction at 24 h, 20 μM [6]: 1.5; interaction between hPXR and SRC-1 [7]: substantially increased the interaction between hPXR and SRC-1; CYP3A4 promoter activity with hPXR mutants [8]: increased CYP3A4 promoter activity substantially for all PXR mutants except L240A, F281A, and F420A; activation of PXR-regulated CYP3A4 promoter activity [9]: activator of PXR activity; expression of CYP3A4 and MDR1 mRNA and protein [10]: induced the expression of CYP3A4 and MDR1 mRNA and protein; inhibition of carbonic anhydrase [11]: weak inhibitor; tracer binding to hPXR-LBD [12]: decreased tracer binding to hPXR-LBD substantially; fold induction at 24 h, 10 μM [13]: 9.83; fold induction at 24 h, 20 μM [13]: 10.6; CYP3A4 promoter activity ([14]; 10 μM MET): 3.93; CYP3A4 promoter activity ([14]; 20 μM MET): 4.22

**Q.** For `NS(=O)(=O)c1cc2c(cc1C(F)(F)F)NC(Cc1ccccc1)NS2(=O)=O` (centres unmarked) [bendroflumethiazide], which “activation of PXR-regulated CYP3A4 promoter activity” value [9] is on record?
**A.** The value was “inactive”.

**Q.** With `NS(=O)(=O)c1cc2c(cc1Cl)N=C(CSCc1ccccc1)NS2(=O)=O` [benzthiazide] as the compound, how does the “activation of PXR-regulated CYP3A4 promoter activity” value [9] read?
**A.** The value was “inactive”.

**Q.** Which “activation of PXR-regulated CYP3A4 promoter activity” value [9] does the source give for `NS(=O)(=O)c1cc2c(cc1Cl)NC(C1CC3C=CC1C3)NS2(=O)=O` (centres unmarked) [cyclothiazide] here?
**A.** The value was “does not activate PXR”.

**Q.** For `O=C1Nc2ccc(Cl)cc2[C@@](C#CC2CC2)(C(F)(F)F)O1` [efavirenz], which “PXR activation in the screen” value [2] is on record?
**A.** Its value is “PXR activation”.

**Q.** For `NS(=O)(=O)c1cc2c(cc1Cl)NCNS2(=O)=O` [hydrochlorothiazide], which “activation of PXR-regulated CYP3A4 promoter activity” value [9] is on record?
**A.** Its value is “inactive”.

**Q.** Which “PXR activation in the screen” value [2] does the source give for `CC(C)(O)c1ccccc1CC[C@@H](SCC1(CC(=O)O)CC1)c1cccc(/C=C/c2ccc3ccc(Cl)cc3n2)c1` [montelukast] here?
**A.** The value was “PXR activation”.

**Q.** For `CCCCC1C(=O)N(c2ccccc2)N(c2ccccc2)C1=O` [phenylbutazone], which “PXR activation in the screen” value [2] is on record?
**A.** The value was “PXR activation”.

**Q.** For `Cc1cccc(C)c1NC(=O)c1cc(S(N)(=O)=O)c(Cl)cc1O` [xipamide], which “activation of PXR-regulated CYP3A4 promoter activity” value [9] is on record?
**A.** Its value is “does not possess PXR-activating activity”.

From paper PMC4252478 (Biochemical pharmacology, 2014)
